Like-named read-outs stand apart in the source and are kept apart here.
Experiments:
Weight change, Example 1 = format: in vivo, human
Experimental: Treatment with aticaprant as described herein has several advantages over the treatments in the art. […] As used herein, the term “weight gain” refers to an increase in the weight of patient, relative to the weight of the patient before taking aticaprant or the weight of the patient that is assessed at the time of the initial administration of the aticaprant. In certain embodiments, the patient may actually see a decrease in overall weight, relative to the weight of the patient before taking aticaprant.
At the lead-in baseline timepoint, the mean weight for subjects in the placebo group was 76.17 kg compared to 78.66 in the aticaprant group. After 6 weeks in the double-blind treatment phase, the mean weight in the placebo group was 75.75 kg compared to 78.57 kg in the aticaprant group. […] This is unexpected because other adjunctive treatments for MDD result in a mean weight increase. See, Thase M, et al. J Clin Psych. 2015: 76(9), 1224-1231; Thase, J Clin Psych. 2015, 76(9): 1232-1240; El Khalili, Int J Neuropsychopharmacol. 2010, 13, 917-932; Marcus, J. Clin. Psychopharmacol. […] Nashville, Tenn, ACNP, 2008; Earley, American College of Neuropsychopharmacology, 2007, Annual Meeting Abstracts (Boca Raton, Fla, Dec. 9-13, 2007). Nashville, TN, ACNP, 2007). See, Table 29.

[1] = Maximum plasma concentration (Cmax) of aticaprant, Example 1; format: in vivo; details: human, oral, 10 mg, eITT, read-out: Cmax, Arithmetic Mean (SD)
Experimental: Aticaprant was supplied as 5-mg capsules. Placebo was supplied as matching capsules. All subjects took 2 capsules QD. The capsules were taken daily from Day 2 to Day 78 in fasting condition with some water (fasting for at least 4 hours before dosing). Medication was taken before breakfast. If the subject has forgotten to take the medication before breakfast, this was done before the next following meal, at the latest at dinner of the same day. If the subject remembered later than dinner, the dose of that day was omitted, and the subject took the dose before breakfast on the next day.
Cmax is defined as maximum plasma concentration of aticaprant. […] Here ‘N’ (number of subjects analyzed) includes the number of subjects evaluable for this endpoint. Here ‘n’ (number analyzed) included all subjects evaluable for specified time point categories.

- Mean weight, Lead-in Baseline, mean (SE) (Weight change, Example 1; Lead-in Baseline, n = 85): 78.66 (1.65) kg
- Mean weight, Screening, mean (SE) (Weight change, Example 1; Screening, n = 85): 78.42 (1.65) kg
- Mean weight, Withdrawal Baseline, mean (SE) (Weight change, Example 1; Withdrawal Baseline (after 6 weeks double-blind treatment), n = 85): 78.57 (1.71) kg
- Mean weight, Relative % Change (Weight change, Example 1; Withdrawal vs Lead-in, n = 85): −0.11%
- mean weight (Weight change, Example 1; after 6 weeks in the double-blind treatment phase): 78.57 kg
- weight over the 6-week double blind treatment period (Weight change, Example 1; both groups): remained relatively stable
- mean weight (Weight change, Example 1; lead-in baseline timepoint): 78.66 kg
- Mean weight, Absolute Change (Withdrawal − Lead-in) (Weight change, Example 1; n = 85): -0.09 kg
- Cmax ([1]; Week 1 (n = 56)): 32.7 ± 10.9 ng/mL
- Cmax ([1]; Week 3 (n = 56)): 33.5 ± 11.1 ng/mL
- Cmax ([1]; Week 6 (n = 56)): 34.3 ± 11.1 ng/mL
Structure (SMILES): Cc1cc(C)cc(C2CCCN2Cc2ccc(Oc3ccc(C(N)=O)cc3F)cc2)c1 (centres unmarked) [aticaprant, 3-fluoro-4-4-2-(3,5-dimethylphenyl)pyrrolidin-1-yl-methylphenoxybenzamide]

Source: patent publication US12150929B2, “Compositions and methods for the treatment of depression” (Janssen Pharmaceuticals, Inc., priority 2021, dated 2024)
